Literature values, collected in patent US20090048319A1, “Method of Using a Micronutrient as Safener for a Triazole for Controlling Harmful Fungi” (priority 2006, published 2009).

Tested on: wheat
Details: in vivo

In the case of `CC1(C)CC/C(=C\c2ccc(Cl)cc2)C1(O)Cn1cncn1` (stereo not shown) [triticonazole, (5E)-5-[(4-chlorophenyl)methylene]-2,2-dimethyl-1-(1H-1,2,4-triazol-1-ylmethyl)cyclopentanol], the “negative effect on plant growth” value is given as “strongly reduced longitudinal growth”.
